Source: patent publication US20070202079A1, “Therapeutic compositions and methods useful in modulating protein tyrosine phosphatases” (priority 2006, published 2007)
“Also recorded” adds a separate entry of the source.

Assays:
A549 = A549 cell growth, MTT; assay type: cell-based, human; conditions: 100 μg/ml, day 6
Experimental: (§1) NIH3T3 (Yi, et al., Blood 85, 87 (1995)), WM9 (Forsberg, et al., Proc. Nat. Acad Sci. USA 90, 393 (1993)), DU145 (Mickey, et al., Cancer Res. 37, 4049 (1977)), LoVo (Drewinko, et al., Cancer Res. 36, 467 (1976)), HEY (Buick, et al., Cancer Res. 45, 3668 (1985)), U251 (Yoshida, et al., Cancer 50, 410 (1982)), A549 (Giard, et al., J. Natl. Cancer Inst. 51, 1417 (1973)) and SK-N-SH (Helson, et al., Cancer Res. 35, 2594 (1975)) cell lines have been described and were cultured in RPMI 1640 supplemented with 10% fetal calf serum (FCS). For measurement of sodium stibogluconate effects on cell growth in vitro, cells were cultured in the absence (−) or presence (+) of various amounts of sodium stibogluconate for 6 days with viable cells quantified by MTT assays (Mosmann, J. Immunol. Methods 65, 55 (1983)). Percentages of growth inhibition by sodium stibogluconate were calculated (.+−.x%).

WM35 = WM35 cell growth, MTT; assay type: cell-based, human
Experimental: For cell proliferation assays, cells were grown in 10% FCS culture medium containing various amounts of IFNs and/or sodium stibogluconate in 96 well plates and cultured at 37° C. for 3 or 6 days as indicated. The numbers of viable cells in proliferation assays were determined by MTT assays as described in Phatak et al., J. Immunol. 167, 3391 (2001).

[1] = tested on: human prostate carcinoma DU145 xenografts; assay: DU145 xenografts in nude mice; assay type: in vivo; conditions: daily 440 mg/kg
Experimental: (§2) Nude mice bearing WM9 or DU145 xenografts were treated with IFN-alpha (500,000 U, s.c., daily), sodium stibogluconate (12 mg Sb, s.c., daily) or both. […] The dosage of sodium stibogluconate corresponds to approximately 440 mg Sb/kg body weight (average mouse body weight 27 g), substantially higher than the standard therapeutic dose of 20 mg Sb/kg and the high dose (143 mg Sb/kg) that was clinically used by accident without serious toxicity. This dose of sodium stibogluconate was based on a previous observation in a pilot study that mice could tolerate daily dose of 20 mg Sb (approximately 700-800 mg Sb/kg). […]
For each of the cell lines, each of 16 mice received subcutaneous injection at the chest area of 3×10^6 cells/site (WM9) or 2×10^6 cells/site (DU145), two sites/mouse, on day 0. […] Tumor size was measured with a caliper to determine the two perpendicular diameters of each tumor. Tumor volume was calculated using the method of the NCI (length×width 2 in millimeters/2=volume in cubic millimeters).
Athymic nude mice (nu/nu, NCR), 4 weeks old (Taconic), were inoculated (s.c.) in the flanks with DU145 cells (3×10^6 cells/site) on day 0. […] Tumor volume was measured and calculated using the formula for a prolate spheroid (V=4/3 7 a^2b) (Lindner, et al. 1997). […]

Flag-PRL-2 = target: T1, Flag-PRL-2 (Homo sapiens, UniProt Q12974); assay: immunocomplex PTPase assay, NIH3T3 Flag-PRL-2 transfectants; assay type: cell-based, mouse
T1 construct: expressed in transfected cells; host or cells: NIH3T3 (pBabepuro, puromycin-selected)
Experimental: Immunocomplex PTPase assays were performed to assess the effects of sodium stibogluconate on intracellular PTPases. Cells were untreated or treated with sodium stibogluconate for 5 minutes, washed with fresh medium and then lysed in cold lysis buffer (50 mM Tris, pH 7.4; 150 mM NaCl; 1% NP40; 2 mM PMSF; 20 μg/ml of Aprotinin). The lysates were incubated with an anti-Flag antibody in immunoprecipitation assays. The immunocomplexes were collected with protein G sepharose beads (Pharmacia) and washed in cold lysis buffer for 4 times. […] C. for 18 hrs. 100 μL of malachite green solution (UBI) was added to each reaction prior to measurement of OD660 to quantify the amounts of free phosphate cleaved by the PTPases from the peptide substrate (Pathak et al., J. Immunol. 167, 3391 (2001)). The remaining 10% contents of individual samples were analyzed by SDS-PAGE/Western blotting to quantify the relative amounts of the phosphatase proteins. […]
The effects of sodium stibogluconate on intracellular PTPases were assessed using NIH3T3 or WM9 transfectants. […]

toxicity in nude mice = assay type: in vivo
Experimental: as §2, with “Sb/kg). An observation that the effect of sodium stibogluconate in inhibiting the growth of the cancer cell lines in vitro was dose-dependent with complete or near complete killing of the cancer cells at 100 μg Sb/ml (or […]) was also considered.” for “Sb/kg).”
As discussed above, the dosage of sodium stibogluconate used for the treatment of nude mice was 12 mg Sb/mouse, s.c., daily (or approximately 440 mg/kg body weight). […] As an initial step to assess the toxicity of such a high dosage of sodium stibogluconate in nude mice, the effect of sodium stibogluconate on the viability and body weights of WM9 xenografts nude mice during the 25 day period of the study was determined.

LoVo = LoVo cell growth, MTT; assay type: cell-based, human; conditions: 100 μg/ml, day 6
Experimental: as §1

T1 sequence (Q12974 whole entry): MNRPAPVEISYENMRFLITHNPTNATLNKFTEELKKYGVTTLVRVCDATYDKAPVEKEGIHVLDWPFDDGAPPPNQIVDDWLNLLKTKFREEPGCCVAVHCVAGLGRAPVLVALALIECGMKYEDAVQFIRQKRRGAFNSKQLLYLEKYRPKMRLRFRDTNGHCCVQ

O.O.O.O.O.O.O.O.O.O=C([O-])[C@@H]1[O][Sb]2([O-])([O][Sb]34([OH])[O][C@H]([C@H](O)CO)[C@H]([O]3)[C@H](C(=O)[O-])[O]4)[O][C@H]([C@H](O)CO)[C@@H]1[O]2.[Na+].[Na+].[Na+] [sodium stibogluconate]
cell killing of A549 (A549): near-complete cell killing
sensitivity of WM35 cells (WM35): minimally affected
toxicity in DU145 tumor mice [1]: no obvious toxicity
time required for full removal of effect on intracellular PRL-2 (Flag-PRL-2; brief treatment): at least 24 hours
PTPase activity of immunocomplexes from treated Flag-PRL-2 transfectants (Flag-PRL-2; cells treated 5 min): lack of PTPase activity
viability and tolerance of treated mice (toxicity in nude mice; WM9 xenograft mice, 25 days, 12 mg Sb daily (440 mg Sb/kg), IFN-alpha 500,000 U): survived until the end of the study; also recorded: well tolerated with no serious side effects
tolerated daily dose, pilot study (toxicity in nude mice; mice, approximately 700-800 mg Sb/kg): 20 mg Sb
cell killing of LoVo (LoVo): near-complete cell killing
